Source: patent US20120122948A1, “3-ALKYL-5-FLUOROINDOLE DERIVATIVES AS MYELOPEROXIDASE INHIBITORS” (UNIVERSITE LIBRE DE BEUXELLES, priority 2009, published 2012)
Structures can show the parent of a compound that is named as a salt. Where two headings read alike, the source gives them in different places.

Tests used:
MPO [1] = biological target: T1, MPO (Homo sapiens, UniProt P05164); experiment: Myeloperoxidase inhibition (MPO) assay, taurine chloramine production by the MPO/H2O2/Cl- system; type: biochemical; conditions: for 1/IC50: inhibition capability expressed as 1/IC50
T1 construct: made in house
T1 sequence (P05164 49-745): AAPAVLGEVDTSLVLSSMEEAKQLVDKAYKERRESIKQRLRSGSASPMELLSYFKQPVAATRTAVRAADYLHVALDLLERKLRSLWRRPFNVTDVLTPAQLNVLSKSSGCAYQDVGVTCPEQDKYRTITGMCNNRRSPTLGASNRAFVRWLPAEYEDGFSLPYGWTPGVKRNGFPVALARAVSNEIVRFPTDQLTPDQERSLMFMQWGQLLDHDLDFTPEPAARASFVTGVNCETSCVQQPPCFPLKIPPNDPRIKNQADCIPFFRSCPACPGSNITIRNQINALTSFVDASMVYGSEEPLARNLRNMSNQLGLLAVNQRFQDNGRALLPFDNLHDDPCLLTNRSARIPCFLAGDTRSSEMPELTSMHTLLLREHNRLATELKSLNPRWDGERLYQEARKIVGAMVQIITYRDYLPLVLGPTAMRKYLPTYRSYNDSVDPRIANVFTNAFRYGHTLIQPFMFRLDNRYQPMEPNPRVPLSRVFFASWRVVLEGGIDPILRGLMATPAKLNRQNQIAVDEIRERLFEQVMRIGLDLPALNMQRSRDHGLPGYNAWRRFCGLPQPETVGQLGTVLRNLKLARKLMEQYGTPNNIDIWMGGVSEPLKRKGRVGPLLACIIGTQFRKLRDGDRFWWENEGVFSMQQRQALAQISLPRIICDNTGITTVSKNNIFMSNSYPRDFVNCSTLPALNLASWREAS
Source text: The assay was based on the production of taurine chloramine produced by the MPO/H2O2/Cl^− system in the presence of a selected inhibitor at defined concentration. The procedure for detecting the inhibition of myeloperoxidase has been described in Van Antwerpen et al. (Development and validation of a screening procedure for the assessment of inhibition using a recombinant enzyme, Talanta, 2008, 75(2), 503-510) and is incorporated herewith by reference. Briefly, the reaction mixture contained the following reagents in a final volume of 200 μl: pH 7.4 phosphate buffer (PO4^3−10 mM/NaCl 300 mM), taurine (15 mM), a compound to be tested (up to 20 μM), and the fixed amount of the recombinant MPO (6.6 μl of MPO batch solution diluted 2.5 times, 40 nM). When necessary, the volume was adjusted with water. This mixture was incubated at 37° C. and the reaction initiated with 10.0 μl of H2O2 (100 μM). After 5 minutes, the reaction was stopped by the addition of 10 μl of catalase (8 U/μl). To determine the amount of taurine chloramines produced, 50 μl of 1.35 mM solution of thionitrobenzoic acid were added and the volume adjusted to 300 μl with water. Then, the absorbance of the solutions was measured at 412 nm with a microplate reader and the curve of the absorbance as a function of the inhibitor concentration was plotted. IC50 values against myeloperoxidase enzyme were then determined using standard procedures taking into account the absence of hydrogen peroxide as 100% of inhibition and the absence of inhibitors as 0% of inhibition.

MPO [2] = biological target: T1, MPO; experiment: Inhibition of LDL oxidation by MPO, ELISA with Mab AG9; type: biochemical; conditions: for remaining activity at 0.05 µM / remaining activity at 0.1 µM / remaining activity at 1 µM / LDL oxidation (%): 5 min
Description: Recombinant MPO was prepared as previously described. Each batch solution is characterized by its protein concentration (mg/ml), its activity (U/ml), and its specific activity (U/mg). The chlorination activity was determined according to Hewson and Hager. Human plasma served for the isolation of LDL by ultracentrifugation according to Havel et al. Before oxidation, the LDL fraction (1.019<d<1.067 g/ml) was desalted by two consecutive passages through PD10 gel-filtration columns (Amersham Biosciences, The Netherlands) using PBS buffer. The different steps were carried out in the dark and the protein concentration was measured by the Lowry assay for both MPO and LDL.
The LDL oxidation was carried out at 37° C. in a final volume of 500 μl. The reaction mixture contained the following reagents at the final concentrations indicated between brackets: pH 7.2, PBS buffer, MPO (1 μg/ml), LDL (1000 μg/ml), 2 μl HCl 1N (4 mM), a compound of formula (Ia) of the present invention (50, 100 and 1000 nM), and H2O2 (100 μM). The reaction was stopped after 5 min by cooling the tubes in ice. The assay was performed as described by Moguilevsky et al. (Moguilevsky N., Zouaoui Boudjeltia Z., Babar S., Delrée P., Legssyer I., Carpentier Y., Vanhaeverbeek M., Ducobu J. Monoclonal antibodies against LDL progressively oxidized by myeloperoxidase react with ApoB-100 protein moiety and human atherosclerotic lesions. Biochem. Biophys. Res. Commun. 2004, 323, 1223-1228) in a NUNC maxisorp plate (VWR, Zaventem, Belgium): 200 ng/well of LDL was coated overnight at 4° C. in a sodium bicarbonate pH 9.8 buffer (100 μl). Afterwards, the plate was washed with TBS 80 buffer and then saturated during 1 h at 37° C. with the PBS buffer containing 1% BSA (150 μl/well). After washing the wells twice with the TBS 80 buffer, the monoclonal antibody Mab AG9 (200 ng/well) obtained according to a standard protocol and as previously described was added as a diluted solution in PBS buffer with 0.5% BSA and 0.1% of Polysorbate 20. After incubation for 1 h at 37° C., the plate was washed four times with the TBS 80 buffer and a 3000 times diluted solution of Ig G anti-mouse Alkaline Phosphatase (Promega, Leiden, The Netherlands) in the same buffer was added (100 μl/well). The wells were washed again four times and a revelation solution (150 μl/well) containing 5 mg of para-nitrophenyl phosphate in 5 ml of diethanolamine buffer was added for 30 min at room temperature. The reaction was stopped with 60 μl/well of NaOH 3 N solution. The measurement of the absorbance was performed at 405 nm with a background correction at 655 nm with a Bio-Rad photometer for a 96-well plate (Bio-Rad laboratories, CA, USA). Results were expressed as means of the percentage of LDL oxidation for six independent measurements.

[3] = recombinant MPO 40 nM, pH 7.4 phosphate buffer, 37° C., H2O2 100 μM, 5 minutes
[4] = pH 7.2, read-out: LDL oxidation (%)
[5] = compound 50 nM, MPO 1 μg/ml, LDL 1000 μg/ml, pH 7.2, 37° C., mean of six measurements
[6] = compound 100 nM, MPO 1 μg/ml, LDL 1000 μg/ml, pH 7.2, 37° C., mean of six measurements
[7] = compound 1000 nM, MPO 1 μg/ml, LDL 1000 μg/ml, pH 7.2, 37° C., mean of six measurements
[8] = pH 7.2, compound 50 nM, MPO 1 μg/ml, LDL 1000 μg/ml, pH 7.2, 37° C., mean of six measurements, read-out: LDL oxidation (%)
[9] = pH 7.2, compound 100 nM, MPO 1 μg/ml, LDL 1000 μg/ml, pH 7.2, 37° C., mean of six measurements, read-out: LDL oxidation (%)
[10] = pH 7.2, compound 1000 nM, MPO 1 μg/ml, LDL 1000 μg/ml, pH 7.2, 37° C., mean of six measurements, read-out: LDL oxidation (%)
[11] = value given in nM in the text on FIG. 2

Compound | 1/IC50 (MPO [1]) [µM⁻¹] | IC50 (MPO [1]; [3]) [nM] | remaining activity at 0.05 µM (MPO [2]; [4]) [%] | remaining activity at 0.1 µM (MPO [2]; [4]) [%] | remaining activity at 1 µM (MPO [2]; [4]) [%] | LDL oxidation (%) (MPO [2]; [5]) | LDL oxidation (%) (MPO [2]; [6]) | LDL oxidation (%) (MPO [2]; [7]) | remaining activity at 0.05 µM (MPO [2]; [8]) [%] | remaining activity at 0.1 µM (MPO [2]; [9]) [%] | remaining activity at 1 µM (MPO [2]; [10]) [%] | inhibition of LDL oxidation (in words) (MPO [2]; irrespective of its concentration in the medium) | IC50 (MPO [1]; [11]) [nM] | inhibition of LDL oxidation (in words) (MPO [2]; at low concentration)
Fc1ccc2[nH]cc(CCN3CCCC3)c2c1 [Compound E, 5-Fluoro-3-[2-(1-pyrrolidinyl)ethyl]-[1H]-indole] | 32 ± 19 | 40 ± 30 | 49.2 | 47.9 | 12.1 | – | – | – | – | – | – | – | – | –
CCN(CC)CCc1c[nH]c2ccc(F)cc12 [Compound F, N,N-Diethyl-3-(2-aminoethyl)-5-fluoro-[1H]-indole] | 7 ± 3 | 160 ± 80 | 80.1 | 60.2 | 8 | – | – | – | – | – | – | – | – | –
N-Propyl-3-(3-aminopropyl)-5-fluoro-[1H]-indole [Compound J] | 6 ± 1 | 170 ± 30 | – | – | – | 79.9 | 42.5 | 5.6 | – | – | – | – | – | –
CN(C)CCCc1c[nH]c2ccc(F)cc12 [Compound H, N,N-Dimethyl-3-(3-aminopropyl)-5-fluoro-[1H]indole tartrate] | 11 ± 8 | 130 ± 90 | – | – | – | – | – | – | 42.4 | 39.7 | 8.4 | – | – | –
NCCc1c[nH]c2ccc(F)cc12 [Compound A, 5-fluorotryptamine, reference compound] | 5 ± 0.6 | 200 | 119 | 111 | 41.5 | – | – | – | – | – | – | poorly effective | – | –
NCCCCCc1c[nH]c2ccc(F)cc12 [Compound K, 3-(5-Aminopentyl)-5-fluoro-[1H]-indole oxalate] | 122 ± 15 | 8 | – | – | – | – | – | – | 29.5 | 23.4 | 3.2 | – | 8 ± 1 | powerful performance
N-Methyl-3-(3-aminopropyl)-5-fluoro-[1H]-indole tartrate [Compound G] | 6 ± 2 | 200 ± 200 | – | – | – | 32.9 | 24.8 | 10.2 | – | – | – | – | – | excellent results
NCCCCCCc1c[nH]c2ccc(F)cc12 [Compound L, 3-(6-Aminohexyl)-5-fluoro-[1H]-indole oxalate] | 3.8 ± 0.2 | 260 ± 10 | – | – | – | – | – | – | 91.8 | 56.1 | 18.2 | – | – | –
NCCCc1c[nH]c2ccc(F)cc12 [Compound B, 3-(3-Aminopropyl)-5-fluoro-[1H]-indole] | 20 ± 4 | 50 ± 8 | – | – | – | – | – | – | 26 | 19 | 9 | – | – | excellent results
NCCCCc1c[nH]c2ccc(F)cc12 [Compound C, 3-(4-Aminobutyl)-5-fluoro-[1H]-indole oxalate] | 72 ± 19 | 15 | – | – | – | – | – | – | < 18.5 | < 18.5 | 6.1 | – | 15 ± 4 | powerful performance
CN(C)CCc1c[nH]c2ccc(F)cc12 [Compound D, N,N-Dimethyl-3-(2-aminoethyl)-5-fluoro-[1H]-indole] | 14 ± 7 | 90 ± 60 | 91.7 | 64.2 | 9.9 | – | – | – | – | – | – | – | – | –
